Reference: patent publication US9730914B2, “3,5-diaminopyrazole kinase inhibitors” (Axikin Pharmaceuticals, Inc., priority 2014, dated 2017)

Columns and labels:
[1] = biological target: T1, JAK3 (Homo sapiens, UniProt P52333); test: Kinase competition binding assay (Kd, qPCR readout), JAK3; details: for Kd: Kd class, JAK3, read-out: JAK3 Activity Level; for RCK:JAK3 selectivity ratio: ratio Kd (JAK3): Kd (RCK)
T1 construct: made in house; host or cells: E. coli BL21-derived host (T7 phage) or HEK-293
T1 sequence (P52333 811-1124 limits assumed): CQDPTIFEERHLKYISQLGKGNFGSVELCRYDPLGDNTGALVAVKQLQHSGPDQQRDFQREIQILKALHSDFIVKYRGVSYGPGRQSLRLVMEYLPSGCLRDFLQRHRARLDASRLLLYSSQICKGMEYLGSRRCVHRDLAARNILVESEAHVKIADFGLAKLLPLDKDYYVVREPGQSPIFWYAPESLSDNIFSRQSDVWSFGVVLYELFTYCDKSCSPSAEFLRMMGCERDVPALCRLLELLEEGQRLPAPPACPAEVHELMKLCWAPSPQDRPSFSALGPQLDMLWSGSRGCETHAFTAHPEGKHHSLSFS
Outline: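 Kd values were derived from 11-point, 3-fold compound series at 1% DMSO, usually topping at 30,000 nM, with retesting from a lower top when under 0.5 nM. It competed with bead-immobilized ligand for 1 h at room temperature, and the captured kinase was measured by qPCR after elution.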

[2] = biological target: T2, JAK2 (Homo sapiens, UniProt O60674); test: Kinase competition binding assay (Kd, qPCR readout), JAK2; details: for Kd: Kd class, JAK2, read-out: JAK2 Activity Level; for RCK:JAK2 selectivity ratio: ratio Kd (JAK2): Kd(RCK)
T2 construct: made in house; host or cells: E. coli BL21-derived host (T7 phage) or HEK-293
T2 sequence (O60674 840-1132 limits assumed): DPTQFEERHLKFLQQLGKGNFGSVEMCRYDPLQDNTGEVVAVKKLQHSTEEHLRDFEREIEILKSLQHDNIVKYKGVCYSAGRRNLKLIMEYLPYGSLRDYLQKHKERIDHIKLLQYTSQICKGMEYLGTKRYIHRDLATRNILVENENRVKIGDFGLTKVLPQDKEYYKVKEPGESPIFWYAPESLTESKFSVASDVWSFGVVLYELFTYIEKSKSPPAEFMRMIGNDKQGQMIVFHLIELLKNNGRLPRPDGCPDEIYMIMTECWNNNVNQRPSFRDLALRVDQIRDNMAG
Outline: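 Competition binding: DNA-tagged kinase (T7 phage or HEK-293-expressed), immobilized biotinylated ligand beads and compound in SeaBlock/PBS/Tween/DTT buffer, 1 hour at room temperature; bound kinase eluted and quantified by qPCR. Kd from 11-point 3-fold dilution, top 30,000 nM typically, final DMSO 1%.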

[3] = biological target: T3, kinase domain protein of RC kinase (RCK) (Homo sapiens, UniProt Q56UN5); test: Kinase competition binding assay (Kd, qPCR readout), RC kinase; details: Kd class, read-out: RCK Activity Level
T3 construct: made in house; host or cells: E. coli BL21-derived host (T7 phage) or HEK-293
T3 sequence (Q56UN5 1061-1324 limits assumed): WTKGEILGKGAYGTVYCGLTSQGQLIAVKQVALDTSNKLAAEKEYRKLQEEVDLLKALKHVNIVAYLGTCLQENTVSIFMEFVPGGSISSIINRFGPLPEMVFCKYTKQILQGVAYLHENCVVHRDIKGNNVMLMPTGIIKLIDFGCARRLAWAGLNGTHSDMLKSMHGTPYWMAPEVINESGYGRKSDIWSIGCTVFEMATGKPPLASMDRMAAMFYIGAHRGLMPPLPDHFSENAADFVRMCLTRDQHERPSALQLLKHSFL
Outline: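 Competition binding: DNA-tagged kinase (T7 phage or HEK-293-expressed) plus immobilized biotinylated ligand beads and compound, 1 h at room temperature, 1% DMSO. Bead-bound kinase eluted and quantified by qPCR. Kd from 11-point 3-fold dilution, top 30,000 nM, retested lower if below 0.5 nM.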

SMILES | Kd [1] [nM] | RCK:JAK3 selectivity ratio [1] | Kd [2] [nM] | RCK:JAK2 selectivity ratio [2] | Kd [3] [nM]
CC(=O)Nc1cccc(Nc2n[nH]c(NCc3cc(C)c(O)c(C)c3)c2C(N)=O)c1 [Compound 40, 3-((3-acetamidophenyl)amino)-5-((4-hydroxy-3,5-dimethylbenzyl)amino)-1H-pyrazole-4-carboxamide] | > 1000 | C (C represents 1<Kd (JAK3): Kd (RCK)<10) | > 1000 | C (C represents 1<Kd (JAK2): Kd (RCK)<10) | > 1000
NC(=O)c1c(Nc2ccc(-c3cc[nH]n3)cc2)n[nH]c1NCc1ccc(O)cc1 [reference compound] | < 50 | C (C represents 1<Kd (JAK3): Kd (RCK)<10) | < 50 | D (D represents Kd(JAK2): Kd (RCK)<1) | < 50
NC(=O)c1c(Nc2ccc(N3CCC(N4CCCC4)CC3)nc2)n[nH]c1NCc1ccc(O)cc1 [reference compound] | < 50 | C (C represents 1<Kd (JAK3): Kd (RCK)<10) | < 50 | D (D represents Kd(JAK2): Kd (RCK)<1) | < 50
COc1ccc(C(=O)Nc2ccc(Nc3n[nH]c(NCc4ccc(O)cc4)c3C(N)=O)cc2)cc1 [reference compound] | < 50 | B (B represents 10<Kd (JAK3): Kd (RCK)<100) | < 50 | B (B represents 10<Kd(JAK2): Kd (RCK)<100) | < 50
Cc1cc(CNc2[nH]nc(Nc3ccc(N4CCOCC4)cn3)c2C(N)=O)cc(C)c1O [Compound 11, 5-((4-hydroxy-3,5-dimethylbenzyl)amino)-3-((5-morpholinopyridin-2-yl)amino)-1H-pyrazole-4-carboxamide] | > 1000 | B (B represents 10<Kd (JAK3): Kd (RCK)<100) | 100 to 1000 | C (C represents 1<Kd (JAK2): Kd (RCK)<10) | 50 to 100
Cc1cc(CNc2[nH]nc(Nc3ccc(N4CCCCC4)cn3)c2C(N)=O)cc(C)c1O [Compound 33, 5-((4-hydroxy-3,5-dimethylbenzyl)amino)-3-((5-(piperidin-1-yl)pyridin-2-yl)amino)-1H-pyrazole-4-carboxamide] | > 1000 | B (B represents 10<Kd (JAK3): Kd (RCK)<100) | 100 to 1000 | C (C represents 1<Kd (JAK2): Kd (RCK)<10) | 50 to 100
Cc1cc(Nc2n[nH]c(NCc3ccc(O)cc3)c2C(N)=O)cnc1N1CCN(C)CC1 [reference compound] | < 50 | C (C represents 1<Kd (JAK3): Kd (RCK)<10) | < 50 | D (D represents Kd(JAK2): Kd (RCK)<1) | < 50
Cc1cc(CNc2[nH]nc(Nc3ccc(N(C)C)cc3)c2C(N)=O)cc(C)c1O [Compound 50, 3-((4-(dimethylamino)phenyl)amino)-5-((4-hydroxy-3,5-dimethylbenzyl)amino)-1H-pyrazole-4-carboxamide] | > 1000 | C (C represents 1<Kd (JAK3): Kd (RCK)<10) | > 1000 | C (C represents 1<Kd (JAK2): Kd (RCK)<10) | 100 to 1000
NC(=O)c1c(Nc2ccc(-c3cccnc3)cc2)n[nH]c1NCc1ccc(O)cc1 [reference compound] | < 50 | C (C represents 1<Kd (JAK3): Kd (RCK)<10) | < 50 | C (C represents 1<Kd (JAK2): Kd (RCK)<10) | < 50
COc1cccc(Nc2n[nH]c(NCc3cc(C)c(O)c(C)c3)c2C(N)=O)c1 [Compound 52, 5-((4-hydroxy-3,5-dimethylbenzyl)amino)-3-((3-methoxyphenyl)amino)-1H-pyrazole-4-carboxamide] | > 1000 | C (C represents 1<Kd (JAK3): Kd (RCK)<10) | > 1000 | C (C represents 1<Kd (JAK2): Kd (RCK)<10) | > 1000
Cc1cc(CNc2[nH]nc(Nc3ccc(N4CCS(=O)(=O)CC4)cc3)c2C(N)=O)cc(C)c1O [Compound 32, 3-((4-(1,1-dioxidothiomorpholino)phenyl)amino)-5-((4-hydroxy-3,5-dimethylbenzyl)amino)-1H-pyrazole-4-carboxamide] | 100 to 1000 | B (B represents 10<Kd (JAK3): Kd (RCK)<100) | 100 to 1000 | C (C represents 1<Kd (JAK2): Kd (RCK)<10) | < 50
NC(=O)c1c(Nc2ccc(CN3CCCCC3)cc2)n[nH]c1NCc1ccc(O)cc1 [reference compound] | < 50 | D (D represents Kd (JAK3): Kd(RCK)<1) | < 50 | D (D represents Kd(JAK2): Kd (RCK)<1) | < 50
Cc1cc(CNc2[nH]nc(Nc3ccc(N4CCOCC4)c(F)c3)c2C(N)=O)cc(C)c1O [Compound 37, 3-((3-fluoro-4-morpholinophenyl)amino)-5-((4-hydroxy-3,5-dimethylbenzyl)amino)-1H-pyrazole-4-carboxamide] | > 1000 | A (A represents Kd (JAK3): Kd (RCK)>100) | > 1000 | B (B represents 10<Kd(JAK2): Kd (RCK)<100) | < 50
Cc1cc(CNc2[nH]nc(Nc3cccc(C#N)c3)c2C(N)=O)cc(C)c1O [Compound 43, 3-((3-cyanophenyl)amino)-5-((4-hydroxy-3,5-dimethylbenzyl)amino)-1H-pyrazole-4-carboxamide] | > 1000 | C (C represents 1<Kd (JAK3): Kd (RCK)<10) | > 1000 | D (D represents Kd(JAK2): Kd (RCK)<1) | > 1000
CN(C)c1ccc(Nc2n[nH]c(NCc3ccc(O)cc3)c2C(N)=O)cc1 [reference compound] | 100 to 1000 | C (C represents 1<Kd (JAK3): Kd (RCK)<10) | < 50 | D (D represents Kd(JAK2): Kd (RCK)<1) | 100 to 1000
Cc1cc(CNc2[nH]nc(Nc3ccc(N4CCC(N5CCCC5)CC4)nc3)c2C(N)=O)cc(C)c1O [Compound 49, 5-((4-hydroxy-3,5-dimethylbenzyl)amino)-3-((6-(4-(pyrrolidin-1-yl)piperidin-1-yl)pyridin-3-yl)amino)-1H-pyrazole-4-carboxamide] | 100 to 1000 | A (A represents Kd (JAK3): Kd (RCK)>100) | 100 to 1000 | A (A represents Kd (JAK2): Kd (RCK)>100) | < 50
Cc1cc(CNc2[nH]nc(Nc3ccc(-c4ccccc4)cc3)c2C(N)=O)cc(C)c1O [Compound 18, 3-([1,1′-biphenyl]-4-ylamino)-5-((4-hydroxy-3,5-dimethylbenzyl)amino)-1H-pyrazole-4-carboxamide] | > 1000 | C (C represents 1<Kd (JAK3): Kd (RCK)<10) | > 1000 | C (C represents 1<Kd (JAK2): Kd (RCK)<10) | > 1000
COc1cccc(C(=O)Nc2ccc(Nc3n[nH]c(NCc4cc(C)c(O)c(C)c4)c3C(N)=O)cc2)c1 [Compound 56, 5-((4-hydroxy-3,5-dimethylbenzyl)amino)-3-((4-(3-methoxybenzamido)phenyl)amino)-1H-pyrazole-4-carboxamide] | > 1000 | A (A represents Kd (JAK3): Kd (RCK)>100) | > 1000 | B (B represents 10<Kd(JAK2): Kd (RCK)<100) | 100 to 1000
Cc1cc(CNc2[nH]nc(Nc3ccc(N4CCSCC4)cc3)c2C(N)=O)cc(C)c1O [Compound 46, 5-((4-hydroxy-3,5-dimethylbenzyl)amino)-3-((4-thiomorpholinophenyl)amino)-1H-pyrazole-4-carboxamide] | > 1000 | B (B represents 10<Kd (JAK3): Kd (RCK)<100) | 100 to 1000 | B (B represents 10<Kd(JAK2): Kd (RCK)<100) | < 50
NC(=O)c1c(Nc2ccc3[nH]ncc3c2)n[nH]c1NCc1ccc(O)cc1 [reference compound] | < 50 | D (D represents Kd (JAK3): Kd(RCK)<1) | < 50 | D (D represents Kd(JAK2): Kd (RCK)<1) | 50 to 100
CN1CCN(c2ccc(Nc3n[nH]c(NCc4ccc(O)cc4)c3C(N)=O)cc2Cl)CC1 [reference compound] | < 50 | C (C represents 1<Kd (JAK3): Kd (RCK)<10) | < 50 | D (D represents Kd(JAK2): Kd (RCK)<1) | < 50
